Laboratory results as given in ChEMBL document CHEMBL1201862, “PubChem BioAssay data set” (2004).
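Results reflect a 48-hour exposure of cells in 96-well plates to compound at five concentrations. GI50: concentration for 50% inhibition of growth.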 The source made the active and inactive calls. Rule as the data show it: active = GI50 up to about 1.1 µM and inactive = higher.

Legend:
Assay in all cases: inhibition of tumour cell growth, NCI panel, 48 h
786-0 = test system: 786-0
A498 = test system: A498
A549 = test system: A549
ACHN = test system: ACHN
CAKI-1 = test system: CAKI-1
CCRF-CEM = test system: CCRF-CEM
COLO 205 = test system: COLO 205
DLD-1 = test system: DLD-1
DMS-114 = test system: DMS-114
DMS-273 = test system: DMS-273
EKVX = test system: EKVX
HCC 2998 = test system: HCC 2998
HCT-15 = test system: HCT-15
HL-60 = test system: HL-60
HOP-18 = test system: HOP-18
HOP-62 = test system: HOP-62
HOP-92 = test system: HOP-92
HT-29 = test system: HT-29
IGROV-1 = test system: IGROV-1
K562 = test system: K562
KM-20L2 = test system: KM-20L2
KM12 = test system: KM12
LOX IMVI = test system: LOX IMVI
LXFL 529 = test system: LXFL 529
M14 = test system: M14
M19-MEL = test system: M19-MEL
MOLT-4 = test system: MOLT-4
Malme-3M = test system: Malme-3M
NCI-H226 = test system: NCI-H226
NCI-H23 = test system: NCI-H23
NCI-H460 = test system: NCI-H460
NCI-H522 = test system: NCI-H522
OVCAR-3 = test system: OVCAR-3
OVCAR-4 = test system: OVCAR-4
OVCAR-5 = test system: OVCAR-5
OVCAR-8 = test system: OVCAR-8
RPMI-8226 = test system: RPMI-8226
RXF 631 = test system: RXF 631
SF-268 = test system: SF-268
SF-295 = test system: SF-295
SF-539 = test system: SF-539
SK-MEL-28 = test system: SK-MEL-28
SK-MEL-2 = test system: SK-MEL-2
SK-MEL-5 = test system: SK-MEL-5
SK-OV-3 = test system: SK-OV-3
SN12C = test system: SN12C
SNB-19 = test system: SNB-19
SNB-75 = test system: SNB-75
SNB-78 = test system: SNB-78
SW-620 = test system: SW-620
TK-10 = test system: TK-10
U-251 = test system: U-251
UACC-257 = test system: UACC-257
UACC-62 = test system: UACC-62
UO-31 = test system: UO-31
XF498 = test system: XF498
HCT-116 = test system: HCT-116
RXF 393 = test system: RXF 393
SR = test system: SR

COc1ccc(NC(=O)NS(=O)(=O)c2ccc(C)cc2)nn1
GI50 (786-0): > 100 µM (inactive)
GI50 (A498): > 100 µM (inactive)
GI50 (A549): > 100 µM (inactive)
GI50 (ACHN): > 100 µM (inactive)
GI50 (CAKI-1): > 100 µM (inactive)
GI50 (CCRF-CEM): > 100 µM (inactive)
GI50 (COLO 205): > 100 µM (inactive)
GI50 (DLD-1): > 100 µM (inactive)
GI50 (DMS-114): > 100 µM (inactive)
GI50 (DMS-273): > 100 µM (inactive)
GI50 (EKVX): > 100 µM (inactive)
GI50 (HCC 2998): > 100 µM (inactive)
GI50 (HCT-15): > 100 µM
GI50 (HL-60): > 100 µM (inactive)
GI50 (HOP-18): > 100 µM (inactive)
GI50 (HOP-62): > 100 µM (inactive)
GI50 (HOP-92): > 100 µM (inactive)
GI50 (HT-29): > 100 µM (inactive)
GI50 (IGROV-1): > 100 µM (inactive)
GI50 (K562): > 100 µM (inactive)
GI50 (KM-20L2): > 100 µM (inactive)
GI50 (KM12): > 100 µM (inactive)
GI50 (LOX IMVI): > 100 µM (inactive)
GI50 (LXFL 529): > 100 µM (inactive)
GI50 (M14): > 100 µM (inactive)
GI50 (M19-MEL): > 100 µM (inactive)
GI50 (MOLT-4): > 100 µM (inactive)
GI50 (Malme-3M): > 100 µM (inactive)
GI50 (NCI-H226): > 100 µM (inactive)
GI50 (NCI-H23): > 100 µM (inactive)
GI50 (NCI-H460): > 100 µM (inactive)
GI50 (NCI-H522): > 100 µM (inactive)
GI50 (OVCAR-3): > 100 µM (inactive)
GI50 (OVCAR-4): > 100 µM (inactive)
GI50 (OVCAR-5): > 100 µM (inactive)
GI50 (OVCAR-8): > 100 µM (inactive)
GI50 (RPMI-8226): > 100 µM (inactive)
GI50 (RXF 631): > 100 µM (inactive)
GI50 (SF-268): > 100 µM (inactive)
GI50 (SF-295): > 100 µM (inactive)
GI50 (SF-539): > 100 µM (inactive)
GI50 (SK-MEL-28): > 100 µM (inactive)
GI50 (SK-MEL-2): > 100 µM (inactive)
GI50 (SK-MEL-5): > 100 µM (inactive)
GI50 (SK-OV-3): > 100 µM (inactive)
GI50 (SN12C): > 100 µM (inactive)
GI50 (SNB-19): > 100 µM (inactive)
GI50 (SNB-75): > 100 µM (inactive)
GI50 (SNB-78): > 100 µM (inactive)
GI50 (SW-620): > 100 µM (inactive)
GI50 (TK-10): > 100 µM (inactive)
GI50 (U-251): > 100 µM (inactive)
GI50 (UACC-257): > 100 µM (inactive)
GI50 (UACC-62): > 100 µM (inactive)
GI50 (UO-31): > 100 µM (inactive)
GI50 (XF498): > 100 µM (inactive)

COc1cc2c(OC)cc1CSCc1sc(C)c(c1Br)CSC2
GI50 (786-0): > 100 µM (inactive)
GI50 (A498): > 100 µM (inactive)
GI50 (A549): > 100 µM (inactive)
GI50 (ACHN): > 100 µM (inactive)
GI50 (CAKI-1): > 100 µM (inactive)
GI50 (CCRF-CEM): > 100 µM (inactive)
GI50 (COLO 205): > 100 µM (inactive)
GI50 (DLD-1): > 100 µM (inactive)
GI50 (DMS-114): > 100 µM (inactive)
GI50 (DMS-273): > 100 µM (inactive)
GI50 (EKVX): > 100 µM (inactive)
GI50 (HCC 2998): > 100 µM (inactive)
GI50 (HCT-116): > 100 µM (inactive)
GI50 (HCT-15): > 100 µM
GI50 (HL-60): 69.3 µM (inactive)
GI50 (HOP-18): > 100 µM (inactive)
GI50 (HOP-62): > 100 µM (inactive)
GI50 (HOP-92): > 100 µM (inactive)
GI50 (HT-29): > 100 µM (inactive)
GI50 (IGROV-1): > 100 µM (inactive)
GI50 (K562): > 100 µM (inactive)
GI50 (KM-20L2): > 100 µM (inactive)
GI50 (KM12): > 100 µM (inactive)
GI50 (LOX IMVI): > 100 µM (inactive)
GI50 (LXFL 529): > 100 µM (inactive)
GI50 (M14): > 100 µM (inactive)
GI50 (M19-MEL): > 100 µM (inactive)
GI50 (MOLT-4): > 100 µM (inactive)
GI50 (Malme-3M): > 100 µM (inactive)
GI50 (NCI-H226): > 100 µM (inactive)
GI50 (NCI-H23): > 100 µM (inactive)
GI50 (NCI-H460): > 100 µM (inactive)
GI50 (OVCAR-3): > 100 µM (inactive)
GI50 (OVCAR-4): > 100 µM (inactive)
GI50 (OVCAR-5): > 100 µM (inactive)
GI50 (OVCAR-8): > 100 µM (inactive)
GI50 (RPMI-8226): > 100 µM (inactive)
GI50 (RXF 393): > 100 µM (inactive)
GI50 (RXF 631): > 100 µM (inactive)
GI50 (SF-268): > 100 µM (inactive)
GI50 (SF-295): > 100 µM (inactive)
GI50 (SF-539): > 100 µM (inactive)
GI50 (SK-MEL-28): > 100 µM (inactive)
GI50 (SK-MEL-2): > 100 µM (inactive)
GI50 (SK-MEL-5): > 100 µM (inactive)
GI50 (SK-OV-3): > 100 µM (inactive)
GI50 (SN12C): > 100 µM (inactive)
GI50 (SNB-19): > 100 µM (inactive)
GI50 (SNB-75): 74.1 µM (inactive)
GI50 (SNB-78): > 100 µM (inactive)
GI50 (SR): 4.16 µM (inactive)
GI50 (SW-620): > 100 µM (inactive)
GI50 (TK-10): > 100 µM (inactive)
GI50 (U-251): > 100 µM (inactive)
GI50 (UACC-257): > 100 µM (inactive)
GI50 (UACC-62): > 100 µM (inactive)
GI50 (UO-31): > 100 µM (inactive)
GI50 (XF498): > 100 µM (inactive)
